One data set concerns MiaPaCa-2 cells. Briefly: Cytotoxicity assay in MiaPaCa-2 (XTT, 72 h). Format: cell-based. To be noted: for inhibition at 1 µM / inhibition at 10 µM / Cell cytotoxicity assay (% Inhibition at 1 μM) / Cell cytotoxicity assay (% Inhibition at 10 μM): DMSO control = 0% inhibition; for inhibition at 1 µM: read-out: Cell cytotoxicity assay (% Inhibition at 1 μM); for inhibition at 10 µM: read-out: Cell cytotoxicity assay (% Inhibition at 10 μM); for IC50: XTT, read-out: Cell cytotoxicity assay IC50 in range. How it is done: MiaPaCa-2 Cells (ATCC) were seeded in 96 well plates (Costar clear flat bottom) at a density of 3000 cells/well and allowed to settle overnight. Test compounds were dissolved in dimethyl sulphoxide (DMSO-Sigma Aldrich, D2650) and incubated with MiaPaCa-2 cells for 72 h. Post 72 h, 50 μl XTT (1 mg/mL; Invitrogen, X 6493) and PMS ([…]; Sigma Aldrich, P9625) reagents were added to the cells in 100 μl of cDMEM (Sigma Aldrich-D5648)+10% FBS (Hyclone-5430088-03)+1×Pen Strep (Sigma Aldrich-P0781). After 1 hour incubation with XTT and PMS absorbance was monitored with Spectramax M3 (Molecular Device). Percentage inhibition of proliferation at 10 μM and 1 μM concentrations was calculated by considering DMSO control as 0% inhibition. IC50 values were plotted using Graph pad prism software (Graph pad Inc, La Jola, Calif., USA).
On the technique in general: Tetrazolium assays rely on reduction of a dye to a coloured formazan, in cell work by metabolically active cells.

Data set [1] addresses T1, recombinant NAMPT wild type protein (Homo sapiens, UniProt P43490).
T1 construct: made in house; host or cells: E. coli
The experiment in a line: NAMPT fluorescence assay. Format: biochemical. The following applies: 50 ng NAMPT, 2 μM Nam, 10 point dose response; read-out: Fluorescence assay IC50 in range. How it is done:
The enzymatic assay was standardized using in-house recombinant NAMPT wild type protein from E. coli expression & NAM (Cat #47865-U) as a substrate. The product NMN formed after enzymatic reaction was derivatized to a fluorescent derivative through sequentially reacting with acetophenone/KOH and formic acid. The derivatized fluorescent NMN derivative was detected at 382 nm excitation wavelength and a 445 nm emission wavelength. […] The fluorescence was measured (Excitation at 382 nm & Emission at 445 nm) using Victor^3 V fluorimeter. The data is calculated using the RFU values. The final concentration of DMSO was 2% in the assay. Each individual IC50 was determined using 10 point dose response curve generated by GraphPad Prism software Version 4 (San Diego, Calif., USA) using nonlinear regression curve fit for sigmoidal dose response (variable slope).

Read-outs that look alike come from different tables or passages of the source.

Broadly, the inhibition is the relative decrease from the control value, in per cent. Usually IC50 stands for the midpoint of a concentration-inhibition curve.

T1 sequence (P43490 whole entry): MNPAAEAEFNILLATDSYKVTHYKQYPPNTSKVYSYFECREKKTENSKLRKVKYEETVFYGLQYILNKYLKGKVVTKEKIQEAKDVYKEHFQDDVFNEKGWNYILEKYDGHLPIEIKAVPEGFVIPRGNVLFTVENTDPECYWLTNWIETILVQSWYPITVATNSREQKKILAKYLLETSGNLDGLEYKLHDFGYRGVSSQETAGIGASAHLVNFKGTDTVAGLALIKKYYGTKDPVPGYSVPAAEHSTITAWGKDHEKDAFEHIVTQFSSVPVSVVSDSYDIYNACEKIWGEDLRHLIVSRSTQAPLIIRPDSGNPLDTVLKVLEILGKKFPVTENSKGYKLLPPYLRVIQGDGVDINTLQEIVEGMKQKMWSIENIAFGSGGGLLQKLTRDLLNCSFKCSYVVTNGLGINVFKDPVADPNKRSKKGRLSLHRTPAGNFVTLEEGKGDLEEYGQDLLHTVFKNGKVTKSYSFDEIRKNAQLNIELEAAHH

In the case of `Cc1cc(NC(=O)NCC2=NOC(COc3cccnc3-c3ccc(F)nc3)C2)ccn1` (racemic) [Example 16, 1-((5-(((6′-fluoro-[2,3′-bipyridin]-3-yl)oxy)methyl)-4,5-dihydroisoxazol-3-yl)methyl)-3-(2-methylpyridin-4-yl)urea], in the data set on MiaPaCa-2 cells (Homo sapiens, MIA PaCa-2, 72 h), the inhibition at 1 µM was 89%, the inhibition at 10 µM amounted to 89% and the IC50 was 50 to 250 nM. Besides, the IC50 in data set [1] is less than 10 nM.
On to `Cn1cc(-c2cccnc2OCC2CC(CNC(=O)c3ccc4nccn4c3)=NO2)cn1` (racemic) [Example 1, N-((5-(((3-(1-methyl-1H-pyrazol-4-yl)pyridin-2-yl)oxy)methyl)-4,5-dihydroisoxazol-3-yl)methyl)imidazo[1,2-a]pyridine-6-carboxamide], for which the half-inhibitory concentration (IC50) was greater than 250 nM in the data set with MiaPaCa-2 cells (Homo sapiens, MIA PaCa-2, 72 h) and less than 10 nM in data set [1].
Take `O=C(NCC1=NOC(COc2cc(Cl)cnc2-c2ccc(F)nc2)C1)c1ccc2nccn2c1` (single isomer, unassigned) [Example 14a, N-((5-(((5-chloro-6′-fluoro-[2,3′-bipyridin]-3-yl)oxy)methyl)-4,5-dihydroisoxazol-3-yl)methyl)imidazo[1,2-a]pyridine-6-carboxamide]: in the data set on MiaPaCa-2 cells (Homo sapiens, MIA PaCa-2, 72 h), the inhibition at 1 µM amounted to 93% and the inhibition at 10 µM was 98%. The 50% inhibitory concentration (IC50) in the data set with MiaPaCa-2 cells is greater than 250 nM.
With `N#Cc1ccc(OCC2CC(CNC(=O)c3ccc4nccn4c3)=NO2)c(-c2ccc(F)nc2)n1` (single isomer, unassigned) [Example 10b, N-((5-(((6-cyano-6′-fluoro-[2,3′-bipyridin]-3-yl)oxy)methyl)-4,5-dihydroisoxazol-3-yl)methyl)imidazo[1,2-a]pyridine-6-carboxamide], in the data set with MiaPaCa-2 cells, the “Cell cytotoxicity assay (% Inhibition at 1 μM)” value stood at 100% and the “Cell cytotoxicity assay (% Inhibition at 10 μM)” value came out at 100%.
As for `O=C(NCC1=NOC(COc2ncccc2-c2ccc(F)nc2)C1)c1ccc2nccn2c1` (racemic) [Example 2, N-((5-(((6′-fluoro-[3,3′-bipyridin]-2-yl)oxy)methyl)-4,5-dihydroisoxazol-3-yl)methyl)-imidazo[1,2-a]pyridine-6-carboxamide], in the data set with MiaPaCa-2 cells (Homo sapiens, MIA PaCa-2, 72 h), the inhibition at 1 µM is 95%, the inhibition at 10 µM stood at 97% and the IC50 lay in the range of 50 to 250 nM. For the same compound, the concentration for half-maximal inhibition (IC50) in data set [1] was less than 10 nM.
With `N#Cc1ccc(OCC2CC(CNC(=O)c3ccc4nccn4c3)=NO2)c(-c2ccc(F)nc2)n1` (racemic) [Example 10, N-((5-(((6-cyano-6′-fluoro-[2,3′-bipyridin]-3-yl)oxy)methyl)-4,5-dihydroisoxazol-3-yl)methyl)imidazo[1,2-a]pyridine-6-carboxamide], in the data set on MiaPaCa-2 cells (Homo sapiens, MIA PaCa-2, 72 h), the inhibition at 1 µM came to 95%, the inhibition at 10 µM turned out to be 95% and the IC50 was 50 to 250 nM. Further, the half-inhibitory concentration (IC50) in data set [1] fell in the range of 10 to 25 nM.
On to `O=C(NCC1=NOC(COc2cc(Cl)cnc2-c2ccc(F)nc2)C1)c1ccc2nccn2c1` (single isomer, unassigned) [Example 14b, N-((5-(((5-chloro-6′-fluoro-[2,3′-bipyridin]-3-yl)oxy)methyl)-4,5-dihydroisoxazol-3-yl)methyl)imidazo[1,2-a]pyridine-6-carboxamide], for which, in the data set on MiaPaCa-2 cells, the “Cell cytotoxicity assay (% Inhibition at 1 μM)” value stood at 100%, the “Cell cytotoxicity assay (% Inhibition at 10 μM)” value turned out to be 98% and the IC50 was less than 50 nM.
Consider `Cc1ccc(OCC2CC(CNC(=O)c3ccc4nccn4c3)=NO2)c(-c2ccc(F)nc2)n1` (racemic) [Example 12, N-((5-(((6′-fluoro-6-methyl-[2,3′-bipyridin]-3-yl)oxy)methyl)-4,5-dihydroisoxazol-3-yl)methyl)imidazo[1,2-a]pyridine-6-carboxamide], for which, in the data set on MiaPaCa-2 cells (Homo sapiens, MIA PaCa-2, 72 h), the inhibition at 1 µM came to 96%, the inhibition at 10 µM turned out to be 95% and the IC50 was less than 50 nM. Further, in data set [1], the IC50 was greater than 25 nM.
`O=C(NCC1=NOC(COc2cccnc2-c2ccc(F)nc2)C1)c1ccc2nccn2c1` (single isomer, unassigned) [Example 4a, N-((5-(((6′-fluoro-[2,3′-bipyridin]-3-yl)oxy)methyl)-4,5-dihydroisoxazol-3-yl)methyl)imidazo[1,2-a]pyridine-6-carboxamide]: in the data set on MiaPaCa-2 cells, the “Cell cytotoxicity assay (% Inhibition at 1 μM)” value is on record as 8% and the IC50 is greater than 250 nM. Also, the inhibition at 10 µM in the data set with MiaPaCa-2 cells (Homo sapiens, MIA PaCa-2, 72 h) amounted to 83%. Moreover, the IC50 in data set [1] was less than 10 nM.
Consider `O=C(NCC1=NOC(COc2cc(Cl)cnc2-c2ccc(F)nc2)C1)c1ccc2nccn2c1` (racemic) [Example 14, N-((5-(((5-chloro-6′-fluoro-[2,3′-bipyridin]-3-yl)oxy)methyl)-4,5-dihydro-isoxazol-3-yl)methyl)imidazo[1,2-a]pyridine-6-carboxamide], for which, in the data set on MiaPaCa-2 cells (Homo sapiens, MIA PaCa-2, 72 h), the inhibition at 1 µM was found to be 95%, the inhibition at 10 µM was found to be 95% and the IC50 is less than 50 nM. In addition, in data set [1], the IC50 lay within 10 to 25 nM.
Regarding `CNC(=O)c1ccc(-c2ncccc2OCC2CC(CNC(=O)c3ccc4nccn4c3)=NO2)cc1F` (racemic) [Example 6, N-((5-(((2-(3-fluoro-4-(methylcarbamoyl)phenyl)pyridin-3-yl)oxy)methyl)-4,5-dihydroisoxazol-3-yl)methyl)imidazo[1,2-a]pyridine-6-carboxamide], in the data set with MiaPaCa-2 cells (Homo sapiens, MIA PaCa-2, 72 h), the inhibition at 1 µM worked out at 15%, the inhibition at 10 µM was 80% and the IC50 was greater than 250 nM. The half-maximal inhibitory concentration (IC50) in data set [1] is greater than 25 nM.
Regarding `O=C(NCC1=NOC(COc2cccnc2-c2cccnc2)C1)c1ccc2nccn2c1` (single isomer, unassigned) [Example 7b, N-((5-(([2,3′-bipyridin]-3-yloxy)methyl)-4,5-dihydroisoxazol-3-yl)methyl)-imidazo[1,2-a]pyridine-6-carboxamide], in the data set on MiaPaCa-2 cells, the IC50 is greater than 250 nM.
Regarding `O=C(NCC1=NOC(COc2cc(F)cnc2-c2cccnc2)C1)c1ccc2nccn2c1` (racemic) [Example 15, N-((5-(((5-fluoro-[2,3′-bipyridin]-3-yl)oxy)methyl)-4,5-dihydroisoxazol-3-yl)methyl)imidazo[1,2-a]pyridine-6-carboxamide], in the data set with MiaPaCa-2 cells (Homo sapiens, MIA PaCa-2, 72 h), the inhibition at 1 µM came out at 99%, the inhibition at 10 µM is 99% and the IC50 lay within 50 to 250 nM.
As for `N#Cc1ccc(OCC2CC(CNC(=O)c3ccc4nccn4c3)=NO2)c(-c2ccc(F)nc2)n1` (single isomer, unassigned) [Example 10a, N-((5-(((6-cyano-6′-fluoro-[2,3′-bipyridin]-3-yl)oxy)methyl)-4,5-dihydroisoxazol-3-yl)methyl)imidazo[1,2-a]pyridine-6-carboxamide], in the data set on MiaPaCa-2 cells (Homo sapiens, MIA PaCa-2, 72 h), the inhibition at 1 µM was found to be 100%, the inhibition at 10 µM turned out to be 100% and the IC50 was less than 50 nM.
`O=C(NCC1=NOC(COc2ccncc2-c2ccc(F)nc2)C1)c1ccc2nccn2c1` (racemic) [Example 3, N-((5-(((6′-fluoro-[3,3′-bipyridin]-4-yl)oxy)methyl)-4,5-dihydroisoxazol-3-yl)methyl)-imidazo[1,2-a]pyridine-6-carboxamide]: in the data set with MiaPaCa-2 cells (Homo sapiens, MIA PaCa-2, 72 h), the inhibition at 1 µM came out at 5%, the inhibition at 10 µM stood at 80% and the IC50 is greater than 250 nM.
Regarding `O=C(NCC1=NOC(COc2cccnc2-c2ccc(Cl)nc2)C1)c1ccc2nccn2c1` (single isomer, unassigned) [Example 8a, N-((5-(((6′-chloro-[2,3′-bipyridin]-3-yl)oxy)methyl)-4,5-dihydroisoxazol-3-yl)methyl)imidazo[1,2-a]pyridine-6-carboxamide], in the data set with MiaPaCa-2 cells, the “Cell cytotoxicity assay (% Inhibition at 1 μM)” value is 10%, the “Cell cytotoxicity assay (% Inhibition at 10 μM)” value was 10% and the IC50 was greater than 10000 nM.

These data come from patent US20170204092A1, “4,5-DIHYDROISOXAZOLE DERIVATIVES AS NAMPT INHIBITORS” (AURIGENE DISCOVERY TECHNOLOGIES LIMITED, priority 2014, published 2017).
